Results on eleven compounds are retold here after patent US7468391B2, “Methods for treating retinoid responsive disorders using selective inhibitors of CYP26A and CYP26B” (Allergan, Inc., priority 2003, dated 2008).

Usually Kd stands for the free concentration of one partner at which half of the binding sites on the other are occupied at equilibrium, for simple one-to-one binding. The IC50 is the point on the concentration scale where inhibition reaches its midpoint.

For one test, the target named is T1, RAR β (Homo sapiens, UniProt P10826).
T1 sequence (P10826 1-455): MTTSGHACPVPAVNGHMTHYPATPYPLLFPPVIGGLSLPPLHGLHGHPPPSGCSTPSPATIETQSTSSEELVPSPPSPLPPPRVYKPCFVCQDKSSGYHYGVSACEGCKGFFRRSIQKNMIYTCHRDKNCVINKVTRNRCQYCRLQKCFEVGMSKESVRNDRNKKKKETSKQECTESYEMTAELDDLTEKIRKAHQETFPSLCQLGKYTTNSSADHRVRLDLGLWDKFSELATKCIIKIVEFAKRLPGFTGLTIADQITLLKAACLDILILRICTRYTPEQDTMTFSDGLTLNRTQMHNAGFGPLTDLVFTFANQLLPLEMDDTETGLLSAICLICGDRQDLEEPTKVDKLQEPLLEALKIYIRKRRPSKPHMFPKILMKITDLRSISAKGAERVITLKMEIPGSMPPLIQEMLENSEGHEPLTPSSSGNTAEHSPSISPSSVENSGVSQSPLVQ
Kind of test: RAR β Kd. Type of test: binding. The following applies: last item of cell EC50/(EFFICACY)/Kd.

Another test concerns the target T2, RAR α (Homo sapiens, UniProt P10276).
T2 sequence (P10276 1-462): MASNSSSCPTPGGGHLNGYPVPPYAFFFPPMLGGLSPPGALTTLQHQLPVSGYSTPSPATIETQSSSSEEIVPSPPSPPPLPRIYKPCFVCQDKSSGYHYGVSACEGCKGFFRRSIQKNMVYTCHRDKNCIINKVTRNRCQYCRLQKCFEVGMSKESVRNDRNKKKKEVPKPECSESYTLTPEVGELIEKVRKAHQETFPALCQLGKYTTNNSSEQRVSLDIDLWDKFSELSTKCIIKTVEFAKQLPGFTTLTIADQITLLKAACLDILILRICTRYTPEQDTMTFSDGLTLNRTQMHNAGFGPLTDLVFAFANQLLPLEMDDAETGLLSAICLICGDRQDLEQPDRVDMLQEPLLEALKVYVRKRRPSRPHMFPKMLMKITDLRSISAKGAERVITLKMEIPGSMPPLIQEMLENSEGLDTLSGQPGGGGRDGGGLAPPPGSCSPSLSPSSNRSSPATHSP
Nature of the test: RAR α Kd. The following applies: last item of cell EC50/(EFFICACY)/Kd. Type of test: binding.

A further test concerns the target T3, CYP26A (P450RAI-1) (Homo sapiens, UniProt O43174).
T3 construct: expressed in transfected cells; host or cells: HeLa
T3 sequence (O43174 1-497): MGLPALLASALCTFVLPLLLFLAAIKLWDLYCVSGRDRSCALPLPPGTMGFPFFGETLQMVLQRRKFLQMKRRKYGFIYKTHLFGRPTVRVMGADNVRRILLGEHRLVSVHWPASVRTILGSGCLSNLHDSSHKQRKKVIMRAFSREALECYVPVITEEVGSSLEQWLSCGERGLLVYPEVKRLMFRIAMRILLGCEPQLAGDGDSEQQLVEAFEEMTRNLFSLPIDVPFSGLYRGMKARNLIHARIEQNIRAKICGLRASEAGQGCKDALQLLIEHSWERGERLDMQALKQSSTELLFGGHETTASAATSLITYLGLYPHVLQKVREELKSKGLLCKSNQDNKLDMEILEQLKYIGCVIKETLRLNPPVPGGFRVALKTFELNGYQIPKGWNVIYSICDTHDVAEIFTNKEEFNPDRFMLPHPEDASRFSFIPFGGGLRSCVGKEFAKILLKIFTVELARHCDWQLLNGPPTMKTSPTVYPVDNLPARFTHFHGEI
Nature of the test: Cell-based inhibition of RA metabolism in CYP26A stably transfected HeLa cells. The following applies: stably transfected HeLa cells, [3H]-RA, 3 hours at 37° C.; read-out: P450RAI-1 Whole cell IC50. As to the method:
(§1) In brief, CYP26A or CYP26B can be stably transfected into HeLa cells. Exponentially growing cells are harvested by incubating in trypsin. Cells are then washed and plated in a 48-well plate at 5×10^5 cells in 0.2 ml MEM medium containing 10% FBS and 0.05 μCi [^3H]-RA in the presence or absence of increasing concentrations of the test compounds. The compounds are diluted in 100% DMSO and then added in triplicate wells at either 10, 1 or 0.1 μM final concentration. As a positive control for RA metabolism inhibition, cells are also incubated with ketoconazole at 100, 10 and 1 μM. Cells are incubated for 3 hours at 37 degrees C. The retinoids are then extracted using the procedure of Bligh et al., Canadian Journal of Biochemistry 37: 911-917 (1959), modified by using methylenechloride instead of chloroform. This publication by Bligh et al., is specifically incorporated herein by reference. The water soluble radioactivity is quantified using a β scintillation counter, and IC50 values are determined.
(§2) CYP26A and CYP26B stably transfected HeLa cells were maintained in 100 mm tissue culture dishes in MEM medium containing 10% FBS and 100 μg/ml hygromycin.
(§3) Exponentially growing cells were harvested by incubating in trypsin. Cells were then washed with 1×PBS and plated in a 48-well plate at 5×10^5 cells in 0.2 ml MEM medium containing 10% FBS and 0.05 μCi [^3H]-RA in the presence or absence of increasing concentrations of the test compounds. The compounds were diluted in 100% DMSO and then added to triplicate wells at final concentrations of 10, 1 or 0.1 μM. As a positive control for RA metabolism inhibition, cells were also incubated with ketoconazole at 100, 10 and 1 μM. Cells were incubated for 3 hours at 37° C. The retinoids were then extracted using a modified Bligh and Dyer procedure (Bligh and Dyer, supra (1959)), in which methylene-chloride, as opposed to chloroform, was used, and the aqueous soluble radioactivity quantified using a β-scintillation counter. ID50 values represent the concentration of inhibitor required to inhibit RA metabolism by 50 percent and were derived manually from log-transformed data.

The next test has as its target T4, CYP26B (P450RAI-2) (Homo sapiens, UniProt Q9NR63).
T4 construct: expressed in transfected cells; host or cells: HeLa
T4 sequence (Q9NR63 1-512): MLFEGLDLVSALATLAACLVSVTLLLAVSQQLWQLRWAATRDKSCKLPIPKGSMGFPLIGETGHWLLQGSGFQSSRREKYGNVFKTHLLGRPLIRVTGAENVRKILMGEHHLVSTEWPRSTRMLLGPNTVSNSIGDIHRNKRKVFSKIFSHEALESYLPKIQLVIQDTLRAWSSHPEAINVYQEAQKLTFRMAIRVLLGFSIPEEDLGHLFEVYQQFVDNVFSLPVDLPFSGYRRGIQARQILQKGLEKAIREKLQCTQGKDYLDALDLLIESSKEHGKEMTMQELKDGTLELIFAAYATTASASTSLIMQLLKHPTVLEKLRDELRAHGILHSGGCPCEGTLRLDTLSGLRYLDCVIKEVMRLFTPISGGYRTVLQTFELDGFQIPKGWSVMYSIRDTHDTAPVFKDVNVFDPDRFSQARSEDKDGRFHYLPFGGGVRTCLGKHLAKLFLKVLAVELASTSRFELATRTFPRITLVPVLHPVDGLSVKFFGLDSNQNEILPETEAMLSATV
Nature of the test: Cell-based inhibition of RA metabolism in CYP26B stably transfected HeLa cells. The following applies: stably transfected HeLa cells, [3H]-RA, 3 hours at 37° C.; read-out: P450RAI-2 Whole cell IC50. As to the method: as §1, §2, §3

The target of another test is T5, RAR γ (Homo sapiens, UniProt P13631).
T5 sequence (P13631 1-454): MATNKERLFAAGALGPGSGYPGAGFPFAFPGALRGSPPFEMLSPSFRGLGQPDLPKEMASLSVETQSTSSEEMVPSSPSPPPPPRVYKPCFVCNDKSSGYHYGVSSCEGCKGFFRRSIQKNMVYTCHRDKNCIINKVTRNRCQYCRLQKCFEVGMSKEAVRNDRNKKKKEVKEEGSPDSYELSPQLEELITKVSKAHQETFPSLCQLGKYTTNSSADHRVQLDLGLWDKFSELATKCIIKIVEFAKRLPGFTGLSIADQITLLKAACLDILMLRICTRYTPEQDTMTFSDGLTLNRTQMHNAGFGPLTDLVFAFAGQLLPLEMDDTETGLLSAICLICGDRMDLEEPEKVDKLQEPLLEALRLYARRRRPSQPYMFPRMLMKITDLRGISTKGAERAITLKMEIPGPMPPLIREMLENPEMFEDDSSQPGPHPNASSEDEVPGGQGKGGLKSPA
Nature of the test: RAR γ Kd. It counts as binding. The following applies: last item of cell EC50/(EFFICACY)/Kd.

With `C/C(=C/C(=O)O)c1ccc(C#Cc2cccc(CN(C)C3CC3)c2)cc1` [Compound 32, 3-(4-{3-[(Cyclopropyl-methyl-amino)-methyl]-phenylethynyl}-phenyl)-but-2-enoic acid], the Kd at RAR β, at RAR α and on RAR γ was greater than 10 µM throughout. The IC50 was 440 nM on CYP26A (P450RAI-1) and greater than 10 µM at CYP26B (P450RAI-2).

Take `CN(C1CC1)C1CCC(C)(C)c2cc(C#Cc3ccc(C(C)(C)C(=O)O)cc3)cc(C3CC3)c21` (stereo not drawn) [Compound 50, 2-{4-[4-Cyclopropyl-5-(cyclopropyl-methyl-amino)-8,8-dimethyl-5,6,7,8-tetrahydro-naphthalen-2-ylethynyl]-phenyl}-2-methyl-propionic acid]: the dissociation constant Kd on RAR β, at RAR α and at RAR γ was greater than 10 µM each time. For the same compound, the half-inhibitory concentration (IC50) is 100 nM at CYP26A (P450RAI-1) and greater than 10 µM at CYP26B (P450RAI-2).

In the case of `CC(C(=O)O)c1ccc(C#Cc2cc(O)c3c(c2)C(C)(C)CC(C)(C)O3)cc1` (stereo not drawn) [Compound 11, 2-[4-(8-Hydroxy-2,2,4,4-tetramethyl-chroman-6-ylethynyl)-phenyl]-propionic acid], the Kd at RAR β, on RAR α and at RAR γ was greater than 10 µM in each case. The IC50 on CYP26A (P450RAI-1) was determined as 70 nM; at CYP26B (P450RAI-2) it was 3 µM.

Take `CCc1cc(C#Cc2ccc(C(C)(C)C(=O)O)cc2)cc2c1C(N(C)C1CC1)CCC2(C)C` (stereo not drawn) [Compound 54, 2-{4-[5-(Cyclopropyl-methyl-amino)-4-ethyl-8,8-dimethyl-5,6,7,8-tetrahydro-naphthalen-2-ylethynyl]-phenyl}-2-methyl-propionic acid]: the Kd is 5.09 µM on RAR β, 1.81 µM on RAR α and greater than 10 µM on RAR γ. The IC50 was 200 nM at CYP26A (P450RAI-1) and greater than 10 µM on CYP26B (P450RAI-2).

As for `Cc1cc2c(cc1C#Cc1ccc(C(C)(C)C(=O)O)cc1)C(C)(C)CCC2N(C)C1CC1` (stereo not drawn) [Compound 53, 2-{4-[5-(Cyclopropyl-methyl-amino)-3,8,8-trimethyl-5,6,7,8-tetrahydro-naphthalen-2-ylethynyl]-phenyl}-2-methyl-propionic acid], the Kd on RAR β was 3.91 µM; at RAR α, greater than 10 µM; at RAR γ, greater than 10 µM. Also, the half-maximal inhibitory concentration (IC50) on CYP26A (P450RAI-1) amounted to 500 nM; on CYP26B (P450RAI-2) it was 5 µM.

Turning to `CC(C)(C)COC(=O)c1cc(C#Cc2ccc(CC(=O)O)cc2)cc2c1OC(C)(C)CC2(C)C` [Compound 19, 6-(4-Carboxymethyl-phenylethynyl)-2,2,4,4-tetramethyl-chroman-8-carboxylic acid 2,2-dimethylpropyl ester], the half-inhibitory concentration (IC50) on CYP26A (P450RAI-1) is 7000 nM; on CYP26B (P450RAI-2), greater than 10 µM.

Consider `CC(C)Oc1cc(C#Cc2ccc(CC(=O)O)cc2)cc2c1OC(C)(C)CC2(C)C` [Compound 13, [4-(8-Isopropoxy-2,2,4,4-tetramethyl-chroman-6-ylethynyl)-phenyl]-acetic acid], for which the figures for the Kd on RAR β, at RAR α and at RAR γ were greater than 10 µM, 0.397 µM and greater than 10 µM, respectively. Also, the IC50 at CYP26A (P450RAI-1) came out at 60 nM; at CYP26B (P450RAI-2), 8 µM.

As to `CC(C)OC(=O)c1cc(C#Cc2ccc(CC(=O)O)cc2)cc2c1OC(C)(C)CC2(C)C` [Compound 18, 6-(4-Carboxymethyl-phenylethynyl)-2,2,4,4-tetramethyl-chroman-8-carboxylic acid isopropyl ester], the IC50 at CYP26A (P450RAI-1) is 400 nM; on CYP26B (P450RAI-2), greater than 10 µM.

Regarding `CC(C)(C)OC(=O)c1cc(C#Cc2ccc(CC(=O)O)cc2)cc2c1OC(C)(C)CC2(C)C` [Compound 20, 6-(4-Carboxymethyl-phenylethynyl)-2,2,4,4-tetramethyl-chroman-8-carboxylic acid tert-butyl ester], the figures for the IC50 on CYP26A (P450RAI-1) and at CYP26B (P450RAI-2) were 2900 nM and greater than 10 µM, respectively.

Turning to `CC(C(=O)O)c1ccc(C#Cc2cc(C3CC3)c3c(c2)C(C)(C)CCC3N(C)C2CC2)cc1` (stereo not drawn) [Compound 49, 2-{4-[4-Cyclopropyl-5-(cyclopropyl-methyl-amino)-8,8-dimethyl-5,6,7,8-tetrahydro-naphthalen-2-ylethynyl]-phenyl}-propionic acid], the equilibrium dissociation constant (Kd) on RAR β was greater than 10 µM; at RAR α, 5.28 µM; at RAR γ it was greater than 10 µM. Also, the IC50 at CYP26A (P450RAI-1) was determined as 50 nM.

On to `CC(C)N(Cc1cc(C(=O)Oc2ccc(CC(=O)O)cc2)cc2c1OC(C)(C)CC2(C)C)C1CC1` [Compound 17, 8-[(Cyclopropyl-isopropyl-amino)-methyl]-2,2,4,4-tetramethyl-chroman-6-carboxylic acid 4-carboxymethyl-phenyl ester], for which the IC50 on CYP26A (P450RAI-1) was 2500 nM; on CYP26B (P450RAI-2), greater than 10 µM.
